Source: PubChem BioAssay AID463203 (Broad Institute, 2010)
The source made the active and inactive calls.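 How the source made its calls: active means more than half of replicate measurements showing over 20% loss of kinase signal relative to plate controls; inconclusive means some but at most half of replicates over 20% loss; inactive means no replicate over 20% signal loss.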

What follows are compounds tested against Glycogen synthase kinase-3 alpha (Homo sapiens) (UniProt P49840) (assay: concentration-response blocking of human GSK3A – biochemical, luminescence, cell-free homogeneous, retest, dose response (AID 463203)). Settings: GSK-3 alpha enzyme, ADP-Glo luminescence, 60 min.
Glycogen synthase kinase-3 alpha (Homo sapiens), sequence (P49840 whole entry, looked up): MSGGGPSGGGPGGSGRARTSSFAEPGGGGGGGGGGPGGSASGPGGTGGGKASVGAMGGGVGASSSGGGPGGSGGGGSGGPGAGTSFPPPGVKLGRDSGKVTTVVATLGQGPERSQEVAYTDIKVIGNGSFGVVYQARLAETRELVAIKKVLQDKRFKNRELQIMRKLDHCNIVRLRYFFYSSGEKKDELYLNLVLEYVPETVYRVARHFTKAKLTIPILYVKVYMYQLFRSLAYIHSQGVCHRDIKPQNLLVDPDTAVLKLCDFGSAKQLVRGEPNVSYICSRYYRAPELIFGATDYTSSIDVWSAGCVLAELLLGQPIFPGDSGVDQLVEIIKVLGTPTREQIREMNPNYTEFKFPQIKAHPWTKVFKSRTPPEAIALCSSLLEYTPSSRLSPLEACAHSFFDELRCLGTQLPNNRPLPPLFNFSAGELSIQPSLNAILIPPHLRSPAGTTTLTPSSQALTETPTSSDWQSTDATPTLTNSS
For CN(C)c1ccc(/C=N/NC(=O)c2ccccc2Cl)cc1, the AC50 was > 30 µM (inactive).
COc1ccccc1NC(=O)CSc1nnc(-c2ccncc2)o1 was tested, and the AC50 was > 30 µM (inactive).
c1ccc(CN2CCN(CCCNc3ccc4nnc(-c5ccccc5)n4n3)CC2)cc1 was tested, and the AC50 was > 30 µM (inactive).
For Cc1cccc(OCC(=O)NNC(=O)c2cc3ccccc3oc2=O)c1, the AC50 was > 30 µM (inactive).
Work on CCCCC(=O)Nc1ccc2c(c1)C(=O)NC2=O yielded an AC50 of 15.6 µM.
Cc1cccc(NC(=O)CSCC(=O)OCc2ccccn2)c1 was tested, and the AC50 was > 30 µM (inactive).
O=C(O)c1ccc2c(c1)S(=O)(=O)c1cc(Cl)ccc1C2=O was tested, and the AC50 was 6.54 µM.
With Brc1ccc(-c2nnc3ccc(Nc4ccccc4)nn23)cc1 the AC50 was > 30 µM (inactive).
COc1cccc(/C=N/n2cncn2)c1OCC#N was tested, and the AC50 was > 30 µM (inactive).
Compound CCOC(=O)c1cnc2ccc(OCC)cc2c1N1CCN(c2ccccc2OC)CC1 has an AC50 of 3.95 µM.
In the case of Cc1cc(OCc2cc(C(=O)O)oc2C)c2c3c(c(=O)oc2c1)CCCC3, the AC50 was 21.6 µM.
With NC(=O)c1cc(Br)cc2c3c([nH]c12)CCCC3 the AC50 was 9.98 µM.
For CCOc1ccc(-c2ncncc2-c2ccc(OC)cc2)c(O)c1, the AC50 was > 30 µM (inactive).
Cc1cccc(C)c1OCC(O)CNC(C)C (centres undefined) was tested, and the AC50 was > 30 µM (inactive).
With CN(C)C(=O)Oc1ccc([N+](=O)[O-])cc1 the AC50 was > 30 µM (inactive).
CC(=O)C1C(c2ccc(C)cc2)c2c(n[nH]c2C)CC1(C)O (centres undefined) was tested, and the AC50 was > 30 µM (inactive).
In the case of Cn1c(N=Nc2ccccc2)nc2ccccc21, the AC50 was 21.1 µM.
Cc1noc(C)c1COc1ccc2ccc(=O)oc2c1 was tested, and the AC50 was > 30 µM (inactive).
With C[C@H](CO)N1C[C@H](C)[C@@H](CN(C)S(=O)(=O)c2ccccc2)Oc2c(NC(=O)c3ccncc3)cccc2C1=O the AC50 was > 30 µM (inactive).
Cc1nccnc1Sc1ccccc1 was tested, and the AC50 was > 30 µM (inactive).
COC(=O)c1oc2ccc(Cl)cc2c1N was tested, and the AC50 was > 30 µM (inactive).
With CCOC(=O)N1CC=C2C(C#N)=C(N)C(C#N)(C#N)[C@H](c3cccs3)C2C1 (some centres undefined) the AC50 was 23.1 µM.
In the case of CCOC(=O)C1CCN(c2c(C(=O)c3ccccc3)cnc3ccc(CC)cc23)CC1, the AC50 was > 30 µM (inactive).
With CCc1ccc(NC(=O)N[C@H](C(=O)O)C(C)CC)cc1 (some centres undefined) the AC50 was > 30 µM (inactive).
In the case of CC1(c2ccccc2)CC(C)(C)N2C(=O)/C(=C3\SC(=S)NC3=O)c3cccc1c32 (centres undefined), the AC50 was > 30 µM (inactive).
CCCc1cc(C(N)=O)c(NC(C)=O)s1 was tested, and the AC50 was 30.8 µM.
In the case of COC(=O)c1ccc(CSc2nnc(-c3ccncc3)n2Cc2ccccc2)o1, the AC50 was > 30 µM (inactive).
In the case of CN(C)CCCNc1oc(-c2ccccc2)nc1C#N, the AC50 was > 30 µM (inactive).
With COc1cc(OC)cc(C2C(C#N)=C(N)Oc3n[nH]c(-c4cccnc4)c32)c1 (centres undefined) the AC50 was > 30 µM (inactive).
In the case of O=C(CSc1nc2[nH]ncc2c(=O)n1-c1ccccc1Br)NCc1ccccc1Cl, the AC50 was > 30 µM (inactive).
In the case of CC(=O)OCC1OC(n2ccc(=O)[nH]c2=O)C(O)C1O (centres undefined), the AC50 was > 30 µM (inactive).
In the case of COc1ccc(NC(=O)Nc2cc(F)ccc2C)cc1, the AC50 was > 30 µM (inactive).
With CC(C)(C)C(=O)NC(=S)Nc1sc2c(c1C(N)=O)CCC2 the AC50 was > 30 µM (inactive).
For C=CC(=O)Nc1sc2c(c1C(N)=O)CCCC2, the AC50 was 13.9 µM.
For Cc1cc(C)c(NC(=O)C2CCCN2CCOC(=O)c2cccc([N+](=O)[O-])c2)c(C)c1 (centres undefined), the AC50 was 13.6 µM.
With COC(=O)c1ccc(CSc2n[nH]c(=S)s2)o1 the AC50 was > 30 µM (inactive).
CCOc1ccc(-n2c(SCC(=O)Nc3ccccc3C)n[nH]c2=O)cc1 was tested, and the AC50 was > 30 µM (inactive).
COc1ccc(-c2csc3ncnc(NCCCO)c23)cc1 was tested, and the AC50 was 20.6 µM.
Work on S=c1[nH]nc(-c2cc3c(s2)-c2ccccc2CC3)o1 yielded an AC50 of 22.9 µM.
With CCC(=O)NCCNc1ccc([N+](=O)[O-])cn1 the AC50 was > 30 µM (inactive).
With O=C(O)COc1ccccc1/C=N/NC(=O)CSc1nnc(SCc2ccccc2)s1 the AC50 was > 30 µM (inactive).
In the case of Cc1ccc(N=Nc2c(O)[nH]c3ccc(F)cc23)cc1, the AC50 was > 30 µM (inactive).
Cc1cnc(NC(=O)C2CC(=O)N(c3ccc4c(c3)OCCO4)C2)s1 (centres undefined) was tested, and the AC50 was > 30 µM (inactive).
With Cc1ccc(C2C(C#N)=C(N)Oc3nc(-c4ccccc4)[nH]c32)o1 (centres undefined) the AC50 was > 30 µM (inactive).
Cc1csc(NC(=O)/C=C/c2ccc3c(c2)OCO3)n1 was tested, and the AC50 was > 30 µM (inactive).
In the case of CCNc1nc(NCC)nc(C(=O)OCCO)n1, the AC50 was > 30 µM (inactive).
With O=C(c1ccc2c3n(nc2c1)-c1ccccc1CO3)N1CCCCC1 the AC50 was 26.4 µM.
In the case of O=[N+]([O-])c1cccnc1N1CCCNCC1, the AC50 was > 30 µM (inactive).
For COc1ccccc1Nc1nc2c(s1)CCC2, the AC50 was > 30 µM (inactive).
COc1ccc(-c2noc(CSc3nc(-c4ccccc4)cc(=O)[nH]3)n2)cc1OC was tested, and the AC50 was > 30 µM (inactive).
For CC1(C)Cc2cccc(C(=O)NCc3ccco3)c2O1, the AC50 was > 30 µM (inactive).
For S=C(Nc1ccccc1)Nc1ccc2cn[nH]c2c1, the AC50 was 24.9 µM.
For Cc1cccc(C(=O)Nc2nccs2)c1[N+](=O)[O-], the AC50 was > 30 µM (inactive).
With Cc1cccc(OCC(=O)Nc2ccc3c(c2)C(=O)NC3=O)c1 the AC50 was > 30 µM (inactive).
